Experimental data published in publication PMC7525011, “Mycobacterium tuberculosis Calcium Pump CtpF Modulates the Autophagosome in an mTOR-Dependent Manner” (Frontiers in Cellular and Infection Microbiology, 2020).

Target: CtpF (Mycobacterium tuberculosis, UniProt P9WPS9)
Conditions: with Ca2+ or Mg2+; 1 mM ATP; 60 mM Tris pH 7.4, 100 mM KCl; described as competitive inhibitor

Chain of CtpF (P9WPS9 whole entry): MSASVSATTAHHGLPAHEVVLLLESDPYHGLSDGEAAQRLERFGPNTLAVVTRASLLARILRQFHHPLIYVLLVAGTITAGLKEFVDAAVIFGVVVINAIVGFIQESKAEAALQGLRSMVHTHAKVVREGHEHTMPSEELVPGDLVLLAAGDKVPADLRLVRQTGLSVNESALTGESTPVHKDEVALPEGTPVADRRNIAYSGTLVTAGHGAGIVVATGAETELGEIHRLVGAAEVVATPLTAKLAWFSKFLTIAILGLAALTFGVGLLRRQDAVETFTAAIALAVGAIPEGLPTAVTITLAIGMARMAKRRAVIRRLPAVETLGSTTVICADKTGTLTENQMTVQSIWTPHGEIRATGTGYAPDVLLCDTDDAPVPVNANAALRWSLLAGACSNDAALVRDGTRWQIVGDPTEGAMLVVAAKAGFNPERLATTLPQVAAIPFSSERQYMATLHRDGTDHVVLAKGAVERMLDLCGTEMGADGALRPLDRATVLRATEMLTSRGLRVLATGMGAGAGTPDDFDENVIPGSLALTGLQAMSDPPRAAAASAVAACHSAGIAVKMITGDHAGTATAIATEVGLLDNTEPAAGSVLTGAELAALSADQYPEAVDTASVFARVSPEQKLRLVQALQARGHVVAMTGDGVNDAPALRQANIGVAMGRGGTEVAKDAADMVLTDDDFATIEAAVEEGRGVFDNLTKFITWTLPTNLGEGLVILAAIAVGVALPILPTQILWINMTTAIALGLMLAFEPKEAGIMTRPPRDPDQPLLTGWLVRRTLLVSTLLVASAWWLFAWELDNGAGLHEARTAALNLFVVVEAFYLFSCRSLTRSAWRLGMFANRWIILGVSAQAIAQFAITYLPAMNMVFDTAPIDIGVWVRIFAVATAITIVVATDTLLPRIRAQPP

[O]=[V]([OH])([OH])[OH] [sodium orthovanadate]
complete inhibition of Pi release: sodium orthovanadate, a competitive inhibitor of ATPase activity was used in the reaction
